Data as given in patent US7863449B2, “Modulators of muscarinic receptors” (Vertex Pharmaceuticals Incorporated, priority 2004, dated 2011).

How the values were obtained:
[1] = biological target: T1, M1 muscarinic receptor (Homo sapiens, UniProt P11229); assay: Functional mobilization of intracellular calcium (FLIPR), M1-CHO cells; assay type: cell-based; conditions: for Emax: 100% efficacy is the maximum response obtained using Carbachol as a control; for M1 Activity: M1-CHO cells, FLIPR calcium mobilization
T1 construct: expressed in transfected cells; host or cells: CHO (M1-CHO)
T1 sequence (P11229 1-460): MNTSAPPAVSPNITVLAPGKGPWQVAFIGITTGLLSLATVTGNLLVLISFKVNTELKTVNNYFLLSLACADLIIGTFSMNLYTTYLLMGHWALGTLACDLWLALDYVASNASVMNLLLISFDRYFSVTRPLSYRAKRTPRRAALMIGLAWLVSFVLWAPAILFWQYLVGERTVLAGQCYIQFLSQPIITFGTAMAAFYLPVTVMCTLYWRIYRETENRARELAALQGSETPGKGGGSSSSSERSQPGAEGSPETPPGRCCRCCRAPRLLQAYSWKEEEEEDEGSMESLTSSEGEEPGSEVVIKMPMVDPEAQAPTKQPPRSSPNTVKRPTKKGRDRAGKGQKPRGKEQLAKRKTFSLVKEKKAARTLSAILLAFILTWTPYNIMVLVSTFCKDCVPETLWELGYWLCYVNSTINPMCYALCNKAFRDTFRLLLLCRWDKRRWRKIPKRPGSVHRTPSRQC
How it was run: (§1)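 CHO cells expressing M1 or M4, loaded with Fluo-3 AM or Calcium 3 dye with 1 mM probenecid, 0.5% DMSO final. Agonist mode: compound added directly; antagonist mode: 15 min pre-incubation (or co-application) before carbachol at EC80. Fluorescence recorded 60 s on FLIPR.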

[2] = biological target: T2, M4 muscarinic receptor (Homo sapiens, UniProt P08173); assay: Functional mobilization of intracellular calcium (FLIPR), M4-CHO cells; assay type: cell-based; conditions: for Emax: 100% efficacy is the maximum response obtained using Carbachol as a control; for M4 Activity: M4-CHO cells, FLIPR calcium mobilization
T2 construct: expressed in transfected cells; host or cells: CHO (M4-CHO)
T2 sequence (P08173 1-479): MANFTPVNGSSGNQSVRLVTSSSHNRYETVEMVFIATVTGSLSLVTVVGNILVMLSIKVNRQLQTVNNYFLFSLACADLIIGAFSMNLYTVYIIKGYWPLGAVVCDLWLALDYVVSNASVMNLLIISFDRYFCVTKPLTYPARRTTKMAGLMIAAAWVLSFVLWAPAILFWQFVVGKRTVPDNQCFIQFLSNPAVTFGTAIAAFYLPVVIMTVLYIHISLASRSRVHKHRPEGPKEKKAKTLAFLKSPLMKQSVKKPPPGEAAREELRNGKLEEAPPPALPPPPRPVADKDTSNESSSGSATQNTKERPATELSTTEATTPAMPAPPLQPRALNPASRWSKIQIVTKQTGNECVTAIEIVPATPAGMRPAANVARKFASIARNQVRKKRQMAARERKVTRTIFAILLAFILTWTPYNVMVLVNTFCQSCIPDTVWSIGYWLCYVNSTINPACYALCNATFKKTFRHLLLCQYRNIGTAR
How it was run: as §1

SMILES	Emax [1]	M1 Activity [1]	Emax [2]	M4 Activity [2]
CCOC(=O)N1C2CCC1CC(N1CCC3(CC1)CN(C(=O)c1cc(C)n(C)n1)Cc1ccccc13)C2 (stereo not drawn) [compound 219]	25 to 100%	+++ (activity was measured to be less than 1.0 μM)	25 to 100%	+++ (activity was measured to be less than 1.0 μM)
CC(=O)N1Cc2ccccc2C2(CCN(Cc3cc4ccccc4o3)CC2)C1 [compound 217]	< 25%	+ (activity was measured to be greater than 5.0 μM)	< 25%	+ (activity was measured to be greater than 5.0 μM)
CCOC(=O)N1CCC(N2CCC3(CC2)CN(C(=O)N2CCCC2)Cc2ccccc23)CC1 [compound 110]	25 to 100%	+++ (activity was measured to be less than 1.0 μM)	25 to 100%	+++ (activity was measured to be less than 1.0 μM)
CCOC(=O)N1CCC(N2CCC3(CC2)CN(C(=O)N2CCCCC2)Cc2ccccc23)CC1 [compound 211]	25 to 100%	+++ (activity was measured to be less than 1.0 μM)	< 25%	+ (activity was measured to be greater than 5.0 μM)
CC(=O)N1Cc2ccccc2C2(CCN(Cc3ccncc3)CC2)C1 [compound 5]	< 25%	+ (activity was measured to be greater than 5.0 μM)	< 25%	+ (activity was measured to be greater than 5.0 μM)
CC(=O)N1Cc2ccccc2C2(CCN(CC3CCN(C(=O)OC4CCCC4)CC3)CC2)C1 [compound 252]	< 25%	+ (activity was measured to be greater than 5.0 μM)	< 25%	+ (activity was measured to be greater than 5.0 μM)
CCOC(=O)N1C2CCC1CC(N1CCC3(CC1)CN(C(=O)C1(C)CC1)Cc1ccccc13)C2 (stereo not drawn) [compound 244]	25 to 100%	+++ (activity was measured to be less than 1.0 μM)	25 to 100%	+++ (activity was measured to be less than 1.0 μM)
CCOC(=O)N1C2CCC1CC(N1CCC3(CC1)CN(C(=O)c1sc(C)nc1C)Cc1ccccc13)C2 (stereo not drawn) [compound 203]	25 to 100%	+++ (activity was measured to be less than 1.0 μM)	25 to 100%	+++ (activity was measured to be less than 1.0 μM)
COc1ccc(CN2CCC3(CC2)CN(C(C)=O)Cc2ccccc23)cc1 [compound 66]	< 25%	+ (activity was measured to be greater than 5.0 μM)	< 25%	+ (activity was measured to be greater than 5.0 μM)
CC(=O)N1Cc2ccccc2C2(CCN(C3CCN(C(=O)O[C@H]4CCOC4)CC3)CC2)C1 [compound 302]	25 to 100%	+++ (activity was measured to be less than 1.0 μM)	25 to 100%	+++ (activity was measured to be less than 1.0 μM)
CCOC(=O)N1CCC(CN2CCC3(CC2)CN(C(=O)c2ccccn2)Cc2ccccc23)CC1 [compound 330]	25 to 100%	+++ (activity was measured to be less than 1.0 μM)	25 to 100%	+++ (activity was measured to be less than 1.0 μM)
CCNC(=O)N1Cc2ccccc2C2(CCN(C3CCN(C(=O)OCC)CC3)CC2)C1 [compound 168]	25 to 100%	+++ (activity was measured to be less than 1.0 μM)	25 to 100%	+++ (activity was measured to be less than 1.0 μM)
CCOC(=O)N1C2CCC1CC(N1CCC3(CC1)CN(C(=O)c1snnc1C(C)C)Cc1ccccc13)C2 (stereo not drawn) [compound 220]	25 to 100%	+++ (activity was measured to be less than 1.0 μM)	25 to 100%	+++ (activity was measured to be less than 1.0 μM)
CCOC(=O)N1CCC(CN2CCC3(CC2)CN(C(=O)OC)Cc2ccccc23)CC1 [compound 128]	25 to 100%	+++ (activity was measured to be less than 1.0 μM)	25 to 100%	+++ (activity was measured to be less than 1.0 μM)
CCOC(=O)N1CCC(CN2CCC3(CC2)CN(S(=O)(=O)c2c(C)noc2C)Cc2ccccc23)CC1 [compound 155]	25 to 100%	+++ (activity was measured to be less than 1.0 μM)	25 to 100%	+++ (activity was measured to be less than 1.0 μM)
CCOCCN1CCC2(CC1)CN(C(C)=O)Cc1ccccc12 [compound 256]	< 25%		< 25%	
CS(=O)(=O)N1Cc2ccccc2C2(CCN(C3CC4CCC(C3)N4C(=O)O[C@@H]3CCOC3)CC2)C1 (stereo partly drawn) [compound 222]	25 to 100%	+++ (activity was measured to be less than 1.0 μM)	25 to 100%	+++ (activity was measured to be less than 1.0 μM)
CC(=O)N1Cc2ccccc2C2(CCN(Cc3ccccn3)CC2)C1 [compound 40]	< 25%	+ (activity was measured to be greater than 5.0 μM)	< 25%	+ (activity was measured to be greater than 5.0 μM)
O=C1NC2(CCN(CC3CCOC3)CC2)c2ccccc21 (stereo not drawn) [compound 352]	< 25%	+ (activity was measured to be greater than 5.0 μM)	< 25%	+ (activity was measured to be greater than 5.0 μM)
CCOC(=O)N1CCC(N2CCC3(CC2)OC(=O)c2cc(Cl)ccc23)CC1 [compound 230]	25 to 100%	+++ (activity was measured to be less than 1.0 μM)	25 to 100%	++ (activity was measured to be from 1.0 μM to 5.0 μM)
CCOC(=O)N1CCC(N2CCC3(CC2)CN(C(=O)c2snnc2C)Cc2ccccc23)CC1 [compound 328]	25 to 100%	+++ (activity was measured to be less than 1.0 μM)	25 to 100%	+++ (activity was measured to be less than 1.0 μM)
CCOC(=O)N1C2CCC1CC(N1CCC3(CC1)CN(S(=O)(=O)Cc1ccccc1)Cc1ccccc13)C2 (stereo not drawn) [compound 218]	25 to 100%	+++ (activity was measured to be less than 1.0 μM)	25 to 100%	+++ (activity was measured to be less than 1.0 μM)
COc1cccc(OC)c1CN1CCC2(CC1)CN(C(C)=O)Cc1ccccc12 [compound 192]	25 to 100%	+ (activity was measured to be greater than 5.0 μM)	25 to 100%	+ (activity was measured to be greater than 5.0 μM)
COCCN1CCC2(CC1)CN(C(C)=O)Cc1ccccc12 [compound 89]	< 25%	+ (activity was measured to be greater than 5.0 μM)	< 25%	+ (activity was measured to be greater than 5.0 μM)
CC(=O)N1Cc2ccccc2C2(CCN(Cc3sccc3C)CC2)C1 [compound 142]	< 25%	+ (activity was measured to be greater than 5.0 μM)	< 25%	+ (activity was measured to be greater than 5.0 μM)
CCOC(=O)N1CCC(N2CCC3(CC2)CN(C(=O)N(CC)CC)Cc2ccccc23)CC1 [compound 242]	25 to 100%	+++ (activity was measured to be less than 1.0 μM)	< 25%	+ (activity was measured to be greater than 5.0 μM)
CCC(=O)Oc1ccc(CN2CCC3(CC2)CN(C(C)=O)Cc2ccccc23)cc1 [compound 59]	< 25%	+ (activity was measured to be greater than 5.0 μM)	< 25%	+ (activity was measured to be greater than 5.0 μM)
CCOC(=O)N1C2CCC1CC(N1CCC3(CC1)CN(C(=O)c1cnn(-c4ccccc4)c1C(F)(F)F)Cc1ccccc13)C2 (stereo not drawn) [compound 92]	25 to 100%	++ (activity was measured to be from 1.0 μM to 5.0 μM)	25 to 100%	++ (activity was measured to be from 1.0 μM to 5.0 μM)
CCOC(=O)N1CCC(CN2CCC3(CC2)CN(C(=O)Nc2ccccc2)Cc2ccccc23)CC1 [compound 51]	25 to 100%	+++ (activity was measured to be less than 1.0 μM)	25 to 100%	+++ (activity was measured to be less than 1.0 μM)
